Assay results reported in US8791126B2, “2-alkynyl-N9-propargyladenine and medicinal use thereof” (Yamasa Corporation, priority 2010, dated 2014).

Experiments:
adenosine A2a receptor = molecular target: T1, adenosine A2a receptor (Rattus norvegicus, UniProt P30543); assay: Adenosine A2a receptor antagonist activity by the Magnus method (excised femoral vein); type: cell-based; details: femoral vein of male Wistar rats, contracted with 10^−5 M serotonin, relaxed with 10^−7 M 2-octynyladenosine; FIG. 1
T1 construct: the femoral vein was excised from male Wistar rats; from tissue; host or cells: femoral vein of male Wistar rats
Description: In order to clarify the adenosine A2a receptor antagonist activity of the compound of the present invention, an evaluation by the Magnus method was conducted. The Magnus method is a method of evaluating the action of drugs using muscle contraction/relaxation as an index, and is used generally as a method for determining the antagonist activity.
In the evaluation, firstly, the femoral vein was excised from male Wistar rats. A Krebs-Henseleit solution aerated with O2 gas was filled in an organ bath and kept at 37° C., and the excised femoral vein was suspended therein under 0.5 g of resting tension. The contractile and relaxing response was determined via a pickup transducer.
In order to check the reactivity of the compound, firstly, the test compound was added dropwise in the organ bath. 10 minutes after the dropwise addition, serotonin was added dropwise in the organ bath such that the concentration thereof was 10^−5 M, to make the femoral vein contract. In a state where the contractile response was stable, 10^−7 M of an adenosine A2a receptor agonist, 2-octynyladenosine was administered to induce the relaxing response, and the inhibitory effect of the compound of the present invention and a positive control on the relaxing response was evaluated. Note that, in the representation of the results, the degree of the contraction at the time of addition of each substance was calculated, on condition that the degree of the relaxation when the compound of the present invention and the positive control were not added dropwise at all was designated as a control for the whole, and the degree of the relaxation for the control for the whole was set to be 100%.
As a compound of the present invention, the formula (3) compound, the formula (4) compound, the formula (5) compound, the formula (9) compound, and the formula (10) compound, which were described in the synthesis examples, were used. Note that the formula (9) compound is a publicly-known compound which has already been described in Patent Literature 2. In addition, as a positive control, 8-[(E)-2-(3,4-dimethoxyphenyl)vinyl]-1,3-diethyl-7-methyl-3,7-dihydro-1H-purin-2,6-dione (KW-6002) described in Patent Literature 1, which is an adenosine A2a receptor antagonist which has conventionally been deemed to have an effect on the treatment of Parkinson's syndrome, and the compound of the following formula (hereinafter referred to as “AT-compound”), which is shown in Patent Literature 3, compound No. 9 in [Table A], were used.

[1] = system: haloperidol-induced catalepsy; assay: Haloperidol-induced catalepsy; type: in vivo; details: male ddY mice, haloperidol 1 mg/kg i.p., compound oral 0.03-10 mg/kg 1 hour later, scored 1, 3, 5, 7 hours; FIGS. 2-4
Description: Haloperidol is known to block dopamine receptors. This method is used generally as a method of evaluating the therapeutic effect of the therapeutic agents for Parkinson's syndrome, by using the effect of inducing catalepsy (when being made to take a certain posture or position of the limbs extrinsically, continuing to keep the posture as it is without willing to change it by oneself) caused by administration of haloperidol. The experiment was conducted by using 7 male ddY mice, 5-weeks old, per group. Haloperidol was suspended in 0.5% CMC, and then administered intraperitoneally to the mice at 1 mg/kg. In the study, as a test compound, the compounds each represented by the formula (4), the formula (5), the formula (10), the formula (11), the formula (12), the formula (13), or the formula (14) in the above synthesis examples were used, and as a positive control, KW-6002 (the test compound and KW-6002 were 0.03, 0.1, 0.3, 1, 3, 10 mg/kg) or L-DOPA (100 mg/kg)+benserazide (25 mg/kg) was used. The above 4 compounds were each suspended in 0.5% CMC, and orally administered to the mice 1 hour after the haloperidol administration. In addition, the case where only CMC was administered was designated as a control for the whole. After a lapse of 1, 3, 5, and 7 hours from the administration of the test compound, both forelimbs only, or both hindlimbs only, of a mouse were put in turn on an acrylic stand, height 4.5 cm, width 1.0 cm, and catalepsy was determined, and the state was scored as Table 2 below. [table]

[2] = molecular target: human adenosine A2a receptor (Homo sapiens, UniProt P29274); assay: Binding assay to human adenosine A2a receptor
Description: In order to clarify the binding affinity of the compound of the present invention to a human adenosine A2a receptor, a binding assay for the human receptor and the compound of the present invention was conducted.

[3] = Photostability study in solid state; type: physicochemical; details: under a fluorescent light for 3 weeks, HPLC
Description: Of the compounds of the present invention, the formula (4) compound, the formula (10) compound, and the formula (11) compound were evaluated for their photostability in solid state.
The study was conducted in accordance with “Guideline for the Photostability Testing of New Drug Substances and Products.” That is, each compound in solid state was placed under a fluorescent light statically for 3 weeks, and the residual ratio was calculated from the HPLC analysis results before and after the placement.

[4] = system: 6-OHDA-induced unilaterally substantia nigra lesioned rats; assay: 6-OHDA-induced unilaterally substantia nigra lesioned rats, contralateral rotation; type: in vivo, rat; details: oral, administered singly, observed 5 hours, versus KW-6002; FIGS. 5-7
Description: 6-Hydroxydopamine (6-OHDA) is taken into neurons by dopamine reuptake transporters and acts as a neurotoxin, and is used for the selective denaturation and removal of dopaminergic neurons. This 6-OHDA was locally administered to the corpus striatum to induce the cell death of dopaminergic nerve and reduce dopamine, and thereby induce the symptoms of Parkinson's syndrome. In the study, 6-OHDA was injected into the right ventral tegmental area of male SD rats, 8-weeks old, and after 4 weeks, apomorphine (5 mg/kg, s.c.) was administered, and the animals which had shown a certain count of the counterclockwise rotation were selected. Using the model rats, the evaluation of the test compound as a therapeutic agent for Parkinson's syndrome was commenced.
Male SD rats, 8-weeks old, were anesthetized with pentobarbital (50 mg/kg), and the hairs were removed broadly from the occiput through the back of the neck, and then an ear bar was attached thereto, and the rats were fixed in a brain stereotaxic apparatus. The skin of the head was incised 3 to 4 cm with a scalpel, the periosteum was stripped off to expose the skull and the suture was checked. […] 4 weeks after the 6-OHDA administration, apomorphine (5 mg/kg, s.c.) was administered, and the count of the counterclockwise rotation for 5 minutes was counted from 5 minutes after the administration. […]

T1 sequence (P30543 whole entry): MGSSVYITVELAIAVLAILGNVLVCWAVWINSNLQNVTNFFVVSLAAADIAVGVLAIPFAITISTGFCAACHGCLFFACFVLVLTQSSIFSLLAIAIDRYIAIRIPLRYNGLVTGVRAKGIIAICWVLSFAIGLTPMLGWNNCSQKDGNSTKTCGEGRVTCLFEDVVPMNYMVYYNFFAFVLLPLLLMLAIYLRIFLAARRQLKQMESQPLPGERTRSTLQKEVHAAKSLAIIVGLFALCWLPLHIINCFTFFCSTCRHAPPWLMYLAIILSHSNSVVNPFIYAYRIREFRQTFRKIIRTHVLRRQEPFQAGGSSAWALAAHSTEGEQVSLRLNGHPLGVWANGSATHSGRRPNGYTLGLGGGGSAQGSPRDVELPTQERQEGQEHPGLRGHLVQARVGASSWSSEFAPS
Sequence of human adenosine A2a receptor (P29274 whole entry): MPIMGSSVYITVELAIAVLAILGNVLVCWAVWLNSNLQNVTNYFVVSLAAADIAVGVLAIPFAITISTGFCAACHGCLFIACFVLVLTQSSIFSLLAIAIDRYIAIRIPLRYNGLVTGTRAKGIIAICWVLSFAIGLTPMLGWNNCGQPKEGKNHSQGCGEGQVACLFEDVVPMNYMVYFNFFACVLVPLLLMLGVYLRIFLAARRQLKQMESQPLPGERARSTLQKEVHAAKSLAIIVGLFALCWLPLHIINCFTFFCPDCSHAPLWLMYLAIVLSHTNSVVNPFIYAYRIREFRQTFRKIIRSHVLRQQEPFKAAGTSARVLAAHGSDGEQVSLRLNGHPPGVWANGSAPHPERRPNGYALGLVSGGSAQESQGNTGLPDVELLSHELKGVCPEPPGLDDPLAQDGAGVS

SMILES | inhibition of the relaxing response of the femoral vein (adenosine A2a receptor antagonist activity) (adenosine A2a receptor) | Ki [2] [nM] | residual ratio [3] [%] | score of catalepsy (improving effect on haloperidol-induced catalepsy) [1] | count of the contralateral rotation [4]
C#CCn1cnc2c(N)nc(C#CCC3CCN(C(=O)Oc4ccc(C(=O)OC)cc4)CC3)nc21 [AT-compound, reference compound] | no potent activity | – | – | – | –
C#CCn1c(Cl)nc2c(N)nc(C#CCCCCCC)nc21 [formula (12) compound, 8-chloro-2-(1-octynyl)-N^9-propargyladenine] | – | – | – | exhibit an effect for a long time, with a smaller dose than that of the positive control KW-6002 | –
C#CCn1c(Cl)nc2c(N)nc(C#CC3(O)CCCCC3)nc21 [formula (13) compound, 8-chloro-2-[2-(1-hydroxycyclohexyl)-1-ethyn-1-yl]-N^9-propargyladenine] | – | – | – | exhibit an effect for a long time, with a smaller dose than that of the positive control KW-6002 | –
C#CCn1c(-n2nccn2)nc2c(N)nc(C#CCCCCCC)nc21 [formula (14) compound, 8-(1,2,3-triazol-2-yl)-2-(1-octynyl)-N^9-propargyladenine] | – | – | – | exhibit an effect for a long time, with a smaller dose than that of the positive control KW-6002 | –

Second part, led by results:

inhibition of the relaxing response of the femoral vein (adenosine A2a receptor antagonist activity) (adenosine A2a receptor) | Ki [2] [nM] | residual ratio [3] [%] | SMILES | score of catalepsy (improving effect on haloperidol-induced catalepsy) [1] | count of the contralateral rotation [4]
more potent activity | 0.581 | 99.0 | C#CCn1c(Br)nc2c(N)nc(C#CCCCCCC)nc21 [formula (4) compound, 8-bromo-2-(1-octyn-1-yl)-N^9-propargyladenine] | kept the score of catalepsy low, with a smaller dose than that of KW-6002 | exhibit an effect which is stronger and continuously increase the count of the contralateral rotation
more potent activity | – | – | C#CCn1c(-c2ccco2)nc2c(N)nc(C#CCCCCCC)nc21 [formula (5) compound, 8-(2-furyl)-2-(1-octyn-1-yl)-N^9-propargyl-adenine] | the catalepsy score was also kept low compared with that of L-DOPA or the formula (4) compound | –
more potent activity | – | 98.8 | C#CCn1c(Br)nc2c(N)nc(C#CC3(O)CCCCC3)nc21 [formula (10) compound, 8-bromo-2-[2-(1-hydroxycyclohexyl)-1-ethyn-1-yl]-N^9-propargyladenine] | kept the score of catalepsy low, with a smaller dose than that of KW-6002 | exhibit an effect which is stronger and continuously increase the count of the contralateral rotation
– | – | 100.2 | C#CCn1c(-c2ccco2)nc2c(N)nc(C#CC3(O)CCCCC3)nc21 [formula (11) compound, 8-(2-furyl)-2-[2-(1-hydroxycyclohexyl)-1-ethyn-1-yl]-N^9-propargyladenine] | exhibit an effect for a long time, with a smaller dose than that of the positive control KW-6002 | –
